According to patent US20060100567A1, “Microsurgical tissue treatment system” (Rocky Mountain Biosystems, Inc, priority 2004, published 2006):

Assay: Delivery of a topical anesthetic through micro-ablated stratum corneum
Type: in vivo
Conditions: solution of 4% lidocaine applied for five minutes to approx. 1 cm^2 area ablated by piezoelectric actuator with 60 micron aluminum oxide particles, 10-15 pulses, 20 kHz
Experimental: A piezoelectric actuator was fitted with 60 micron aluminum oxide particles fixed to its surface so as to provide an approximate 1 cm^2 treatment area. Ten to fifteen pulses of less than one second duration were applied with force of less than 1 pound to the area and frequency of 20 kHz. […] A solution of 4% lidocaine was applied to the area and incubated for five minutes. The excess lidocaine was wiped off, and a series of probes was made in and around the area of treatment using a 20 gauge needle or by pinching.

CCN(CC)CC(=O)Nc1c(C)cccc1C [lidocaine]
anesthesia (sensation on probing with a 20 gauge needle or pinching): significant anesthesia was obtained
